SMILES strings stand for the structures.

Data set [1] is described as follows: Pharmacokinetic determination in rats (IV and PO, plasma, LCMS/MS). In kind it is in vivo, SD rats. A digest of the protocol:
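Male SD rats (3/group), fasted overnight, dosed PO at 30 mg/kg in 10% Captisol/50 mM citrate pH 5.0 or IV at 1 mg/kg in 5% DMSO/10% Solutol HS15/85% PBS. Jugular plasma (EDTA-2K) sampled predose to 24 h; analysed by LCMS/MS.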

Data set [2] in a line: Pharmacokinetic determination in mice (IV and PO, plasma, LCMS/MS). Conditions: for F: PO 30 mg/kg vs IV 1 mg/kg; for AUC(0-inf) / C0 / clearance / half-life / Cmax / Tmax: mouse, in vivo; for C0: read-out: C0; for clearance: read-out: CL; for half-life: read-out: T1/2 (converted). In kind it is in vivo, Balb/c mice. The essentials:
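Male Balb/c mice, fasted overnight (n=3 per route): PO 30 mg/kg in 10% Captisol/50 mM citrate pH 5.0, or IV 1 mg/kg in 5% DMSO/10% Solutol HS15/85% PBS. Orbital blood sampled predose to 24 h; EDTA plasma analysed by LC-MS/MS.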

The test system of a further data set is GP2D. The experiment in a line: Inhibition of proliferation of KRAS G12D mutant tumor cell line GP2D (CellTiter-Glo). The conditions noted are these: Homo sapiens, GP2d, 72 h, read-out: GP2D IC50.
Data set [3] is described as follows: Plasma stability test, human plasma.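 On all read-outs here: test compound incubated in human plasma, quantified by LC-MS/MS (positive-ion ESI, MRM) against an internal standard.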 In kind it is in vitro ADME. The conditions noted are these: for half-life: read-out: t1/2 (converted).
Experimental: Liquid chromatography-mass spectrometer, centrifuge, vortexer, pipette, continuous dispenser, 96-well plate, 50% methanol aqueous solution, acetonitrile solution containing internal standard, blank matrix (plasma of rat, dog, or human), Propantheline (propantheline bromide), Mevinolin (lovastatin), and test compound.
After whole blood was collected from animals or humans, it was placed in a test tube containing an anticoagulant and centrifuged at 3500 rpm for 10 min to collect the upper pale yellow plasma.
The compound was weighed and the stock solution was formulated with DMSO and the working solution was formulated with 100 mM phosphate buffer.
• Instrument: API4000 liquid chromatography-mass spectrometer, AB Company, USA; • the ion source was electrospray ionization source (ESI); • drying gas (N2) temperature was 500°C; • electrospray voltage was 5500V; • the detection method was positive ion detection; • the scanning method was selected reaction monitoring (MRM); • the scanning time was 0.1s.
[4] abbreviates: PO 30 mg/kg vs IV 1 mg/kg, male SD rats.
The mark [5] stands for this setting: rat, in vivo, IV, 1 mg/kg, male SD rats, overnight fasting, plasma, read-out: AUCo-∞.
Where [6] appears, read: rat, in vivo, IV, 1 mg/kg, male SD rats, overnight fasting, plasma, read-out: C0.
[7] abbreviates: rat, in vivo, IV, 1 mg/kg, male SD rats, overnight fasting, plasma, read-out: CL.
Where [8] appears, read: rat, in vivo, IV, 1 mg/kg, male SD rats, overnight fasting, plasma, read-out: T1/2 (converted).
Setting [9] is: rat, in vivo, PO, 30 mg/kg, male SD rats, overnight fasting, plasma, read-out: AUCo-∞.
The mark [10] stands for this setting: rat, in vivo, PO, 30 mg/kg, male SD rats, overnight fasting, plasma, read-out: Cmax.
[11] abbreviates: rat, in vivo, PO, 30 mg/kg, male SD rats, overnight fasting, plasma, read-out: T1/2 (converted).
Setting [12] is: rat, in vivo, PO, 30 mg/kg, male SD rats, overnight fasting, plasma, read-out: Tmax.
[13] abbreviates: Balb/c mice, intravenously (IV), 1 mg/kg, plasma, read-out: AUCo-∞.
[14] abbreviates: Balb/c mice, intravenously (IV), 1 mg/kg, plasma.
[15] abbreviates: PO, 30 mg/kg, male Balb/c mice, overnight fasting, plasma, read-out: AUC0-∞.
[16] abbreviates: PO, 30 mg/kg, male Balb/c mice, overnight fasting, plasma, read-out: Cmax.
Where [17] appears, read: PO, 30 mg/kg, male Balb/c mice, overnight fasting, plasma.
Setting [18] is: PO, 30 mg/kg, male Balb/c mice, overnight fasting, plasma, read-out: Tmax.

As usually defined, the Cmax is the peak of the concentration-time curve. What is called Tmax is the time at which the peak concentration occurs. Usually IC50 stands for the concentration that gives 50% inhibition. `C#Cc1c(F)ccc2cc(O)cc(-c3nc4c5c(nc(OCC6(CN7CCC(=C(F)F)CC7)CC6)nc5c3F)N3C[C@H]5CC[C@H](N5)[C@H]3CO4)c12` [Example 1-1, 4-((5aS,6S,9R)-12-((1-((4-(difluoromethylene)piperidin-1-yl)methyl)cyclopropyl)methoxy)-1-fluoro-5a,6,7,8,9,10-hexahydro-5H-4-oxa-3,10a,11,13,14-pentaaza-6,9-methylenenaphtho[1,8-ab]heptalene-2-yl)-5-ethynyl-6-fluoronaphthalen-2-ol]: the results for the F in data set [1] (setting [4]) and in data set [2] (male Balb/c mice) were 2.1% and 12.1%, respectively. Also, the AUC(0-inf) in data set [1] (setting [5]) came out at 2960 ng·h/mL; in data set [1] (setting [9]), 1890 ng·h/mL; in data set [2] (setting [13]), 583 ng·h/mL; in data set [2] (setting [15]), 2110 ng·h/mL. Also, the C0 in data set [1] (setting [6]) was determined as 1770 ng/mL; in data set [2] (setting [14]) it was 886 ng/mL. Besides, the clearance in data set [1] (setting [7]) amounted to 5.6 mL/min/kg; in data set [2] (setting [14]), 28.6 mL/min/kg. Further, the half-life in data set [1] (setting [8]) was 16.3 h; in data set [1] (setting [11]) it was 5.1 h; in data set [2] (setting [14]) it was 8.6 h; in data set [2] (setting [17]), 9.1 h; in data set [3] (Human plasma, 37°C), 31.4 h. The Cmax in data set [1] (setting [10]) came out at 254 ng/mL; in data set [2] (setting [16]), 227 ng/mL. The Tmax in data set [1] (setting [12]) was 6 h; in data set [2] (setting [18]) it was 0.5 h. For the same molecule, the IC50 in the data set with GP2D worked out at 1200 pM. The “Remaining rate (%) 0 min” value in data set [3] (Human plasma, 37°C, 0 min) is given as 100.00%. In addition, the “Remaining rate (%) 15 min” value in data set [3] (Human plasma, 37°C, 15 min) is given as 100.68%. Further, the “Remaining rate (%) 30 min” value in data set [3] (Human plasma, 37°C, 30 min) is listed as 101.72%. Besides, in data set [3] (Human plasma, 37°C, 60 min), the “Remaining rate (%) 60 min” value is given as 97.62%. Besides, the “Remaining rate (%) 120 min” value in data set [3] (Human plasma, 37°C, 120 min) worked out at 88.35%.
As to `C#Cc1c(F)ccc2cc(O)cc(-c3nc4c5c(nc(OCC6(CN7CCC(=C(F)F)CC7)CC6)nc5c3F)N3C[C@H]5CC[C@H](N5)[C@H]3[C@H](C)O4)c12` [Example 19-1, 4-((5S,5aS,6S,9R)-12-((1-((4-(difluoromethylene)piperidin-1-yl)methyl)cyclopropyl)methoxy)-1-fluoro-5-methyl-5a,6,7,8,9,10-hexahydro-5H-4-oxa-3,10a,11,13,14-pentaaza-6,9-methylnaphtho[1,8-ab]hept-2-yl)-5-ethynyl-6-fluoronaphthalene-2-ol], the figures for the F in data set [1] (setting [4]) and in data set [2] (male Balb/c mice) were 5.4% and 11.2%, respectively. Moreover, the AUC(0-inf) is 1900 ng·h/mL in data set [1] (setting [5]), 3080 ng·h/mL in data set [1] (setting [9]), 476 ng·h/mL in data set [2] (setting [13]) and 1610 ng·h/mL in data set [2] (setting [15]). Moreover, the C0 worked out at 1720 ng/mL in data set [1] (setting [6]) and 904 ng/mL in data set [2] (setting [14]). Also, the clearance came out at 8.8 mL/min/kg in data set [1] (setting [7]) and 35 mL/min/kg in data set [2] (setting [14]). For the same molecule, the half-life in data set [1] (setting [8]) was 10.1 h; in data set [1] (setting [11]), 8.2 h; in data set [2] (setting [14]), 11.2 h; in data set [2] (setting [17]), 7.2 h; in data set [3] (Human plasma, 37°C), 15.5 h. Moreover, the Cmax in data set [1] (setting [10]) came out at 329 ng/mL; in data set [2] (setting [16]), 316 ng/mL. Moreover, the Tmax in data set [1] (setting [12]) was 2 h; in data set [2] (setting [18]), 1 h. Moreover, in the data set with GP2D, the IC50 is 160 pM. For the same molecule, the “Remaining rate (%) 0 min” value in data set [3] (Human plasma, 37°C, 0 min) is 100.00%. In data set [3] (Human plasma, 37°C, 15 min), the “Remaining rate (%) 15 min” value turned out to be 95.61%. The “Remaining rate (%) 30 min” value in data set [3] (Human plasma, 37°C, 30 min) is 93.15%. Moreover, in data set [3] (Human plasma, 37°C, 60 min), the “Remaining rate (%) 60 min” value turned out to be 85.08%. Besides, the “Remaining rate (%) 120 min” value in data set [3] (Human plasma, 37°C, 120 min) was found to be 83.37%.
`[2H]C([2H])([2H])[C@@H]1Oc2nc(-c3cc(O)cc4ccc(F)c(C#C)c34)c(F)c3nc(OCC4(CN5CCC(=C(F)F)CC5)CC4)nc(c23)N2C[C@H]3CC[C@H](N3)[C@@H]12` [Example 161, 4-((5S,5aS,6S,9R)-12-((1-((4-(difluoromethylene)piperidin-1-yl)methyl)cyclopropyl)methoxy)-1-fluoro-5-(methyl-d3)-5a,6,7,8,9,10-hexahydro-5H-4-oxa-3,10a,11,13,14-pentaaza-6,9-methylnaphtho[1,8-ab]hept-2-yl)-5-ethynyl-6-fluoronaphthalen-2-ol] gave a F in data set [1] (rat, in vivo) of 7%. Also, in data set [1] (rat, in vivo, iv, 1 mg/kg), the AUC(0-inf) was found to be 1420 ng·h/mL, the C0 stood at 704 ng/mL, the clearance was found to be 11.7 mL/min/kg and the half-life was 8.4 h. In data set [1] (rat, in vivo, po, 30 mg/kg), the AUC(0-inf) turned out to be 2890 ng·h/mL, the Cmax was determined as 254 ng/mL, the Tmax worked out at 6 h and the half-life was 6.9 h. Moreover, in data set [2] (po, 30 mg/kg), the AUC(0-inf) was 1550 ng·h/mL, the Cmax is 221 ng/mL and the Tmax was 2 h. In addition, in the data set on GP2D, the IC50 stood at 240 pM. Moreover, the half-life in data set [3] (Human plasma, 37°C) was 142 h. For the same molecule, the “Remaining rate (%) 0 min” value in data set [3] (human, plasma, 0 h) came out at 100.00%. The “Remaining rate (%) 15 min” value in data set [3] (human, plasma, 0.25 h) is reported as 93.48%. Also, the “Remaining rate (%) 30 min” value in data set [3] (human, plasma, 0.5 h) worked out at 92.44%. Further, the “Remaining rate (%) 60 min” value in data set [3] (human, plasma, 1 h) is 95.19%. Besides, the “Remaining rate (%) 120 min” value in data set [3] (human, plasma, 2 h) came to 97.25%.
